Results on twelve molecules are retold here after patent publication US20150344502A1, “CEPHEM COMPOUND” (SHIONOGI & CO., LTD., priority 2012, published 2015).

In brackets after ≈: the same amount, converted by molar mass. A value given as a limit tells only on which side of the number the result lay.

Common to all, as to format: cell-based
One experiment deals with E. Coli ATCC BAA-196. The experiment can be described thus: MIC, broth microdilution (CLSI), E. Coli ATCC BAA-196. Conditions: Escherichia coli, ATCCBAA196; E. Coli ATCC BAA-196, TEM-10, ESBL producing strain; 5×10^5 cfu/mL; cation-adjusted Iso-Sensitest broth containing human Apo-transferrin; read-out: Minimum Inhibitory Concentration (MIC). As to the method: (§1) Compound (I) of the present invention was evaluated for in vitro antimicrobial activity thereof.
(§2) Measurement of Minimum Inhibitory Concentration (MIC: μg/mL) was conducted according to CLSI (Clinical and Laboratory Standards Institute) method, and the amount of bacteria for inoculation was 5×10^5 cfu/mL, and cation-adjusted Iso-Sensitest broth containing human Apo-transferrin was used as a test medium, and the experiment was conducted using broth microdilution method.
(In general: Dilution methods test growth across graded concentrations, often in twofold steps.)

Another experiment has as its system E. Coli ATCC BAA-200. Nature of the experiment: MIC, broth microdilution (CLSI), E. Coli ATCC BAA-200. Conditions: Escherichia coli, ATCCBAA200; E. Coli ATCC BAA-200, SHV-4, ESBL producing strain; 5×10^5 cfu/mL; cation-adjusted Iso-Sensitest broth containing human Apo-transferrin; read-out: Minimum Inhibitory Concentration (MIC). As to the method:
as §1, §2

The next experiment relates to E. cloacae 1481026. Nature of the experiment: MIC, broth microdilution (CLSI), E. cloacae 1481026. To be noted: Enterobacter cloacae, 5×10^5 cfu/mL, cation-adjusted Iso-Sensitest broth containing human Apo-transferrin, read-out: Minimum Inhibitory Concentration (MIC). Here is the method:
as §1, §2

Another experiment deals with P. aeruginosa 378057. Nature of the experiment: MIC, broth microdilution (CLSI), P. aeruginosa 378057. To be noted: Pseudomonas aeruginosa, 5×10^5 cfu/mL, cation-adjusted Iso-Sensitest broth containing human Apo-transferrin, read-out: Minimum Inhibitory Concentration (MIC). As to the method: as §1, §2
A further experiment deals with A. baumannii 1484820. Nature of the experiment: MIC, broth microdilution (CLSI), A. baumannii 1484820. Conditions: Acinetobacter baumannii, 5×10^5 cfu/mL, cation-adjusted Iso-Sensitest broth containing human Apo-transferrin, read-out: Minimum Inhibitory Concentration (MIC). Here is the method: as §1, §2

`CC(C)(O/N=C(\C(=O)N[C@@H]1C(=O)N2C(C(=O)O)=C(C[N+]3(Cc4noc5cc(O)c(O)cc45)CCCC3)CS[C@H]12)c1csc(N)n1)C(=O)[O-]` [Compound I-9]: the MIC was determined as 0.125 mg/L (≈ 0.178 µM) in the experiment on E. Coli ATCC BAA-196; 0.25 mg/L (≈ 0.356 µM) in the experiment on E. Coli ATCC BAA-200; 4 mg/L (≈ 5.7 µM) in the experiment with E. cloacae 1481026; 0.063 mg/L (≈ 0.0898 µM) in the experiment with P. aeruginosa 378057; 0.5 mg/L (≈ 0.713 µM) with A. baumannii 1484820.
The like results for `CC(C)(O/N=C(\C(=O)N[C@@H]1C(=O)N2C(c3nnn[n-]3)=C(C[N+]3(CCN4C(=O)c5ccc(O)c(O)c5C4=O)CCCCC3)CS[C@H]12)c1csc(N)n1)C(=O)[O-].[Na+]` [Compound I-15] were, in that order, 0.125 mg/L, 0.125 mg/L, 0.5 mg/L, 0.063 mg/L and 0.25 mg/L.
The like results for `CC(C)(O/N=C(\C(=O)N[C@@H]1C(=O)N2C(c3nnn[nH]3)=C(C[N+]3(CCN4C(=O)c5ccc(O)c(O)c5C4=O)CCCC3)CS[C@H]12)c1nc(N)sc1Cl)C(=O)[O-]` [Compound I-14] were, in that order, no more than 0.031 mg/L, 0.063 mg/L (≈ 0.0785 µM), 0.5 mg/L (≈ 0.623 µM), no more than 0.031 mg/L and 0.125 mg/L (≈ 0.156 µM).
On the same counts, the results for `CC(C)(O/N=C(\C(=O)N[C@@H]1C(=O)N2C(c3nnn[nH]3)=C(C[N+]3(CCN4C(=O)c5ccc(O)c(O)c5C4=O)CCCC3)CS[C@H]12)c1csc(N)n1)C(=O)[O-]` [Compound I-11] are 0.063 mg/L (≈ 0.0821 µM), 0.125 mg/L (≈ 0.163 µM), 0.5 mg/L (≈ 0.651 µM), no more than 0.031 mg/L and 0.063 mg/L (≈ 0.0821 µM).
`CC(C)(O/N=C(\C(=O)N[C@@H]1C(=O)N2C(C(=O)O)=C(C[N+]3(CCN4C(=O)c5c(Cl)cc(O)c(O)c5C4=O)CCCC3)CS[C@H]12)c1csc(N)n1)C(=O)[O-]` [Compound I-3]: the MIC with E. Coli ATCC BAA-196 worked out at 0.125 mg/L (≈ 0.161 µM); in the experiment on E. Coli ATCC BAA-200, 0.125 mg/L (≈ 0.161 µM); in the experiment with P. aeruginosa 378057, 0.063 mg/L (≈ 0.081 µM); with A. baumannii 1484820, 0.25 mg/L (≈ 0.321 µM).
`CC[N+](CC)(CCN1C(=O)c2ccc(O)c(O)c2C1=O)CC1=C(c2nn[nH]n2)N2C(=O)[C@@H](NC(=O)/C(=N\OC(C)(C)C(=O)O)c3csc(N)n3)[C@H]2SC1.[Na+]` [Compound I-19]: the MIC is 0.063 mg/L in the experiment on E. Coli ATCC BAA-196; 0.063 mg/L with E. Coli ATCC BAA-200; 0.5 mg/L in the experiment on E. cloacae 1481026; no more than 0.031 mg/L in the experiment with P. aeruginosa 378057; 0.25 mg/L with A. baumannii 1484820.
Turning to `CC(C)(O/N=C(\C(=O)N[C@@H]1C(=O)N2C(C(=O)O)=C(C[N+]34CCC(CN5C(=O)c6ccc(O)c(O)c6C5=O)(CC3)CC4)CS[C@H]12)c1csc(N)n1)C(=O)[O-]` [Compound I-5], the MIC with E. Coli ATCC BAA-196 was 0.25 mg/L (≈ 0.325 µM); in the experiment with E. Coli ATCC BAA-200 it was 0.25 mg/L (≈ 0.325 µM); with E. cloacae 1481026 it was 16 mg/L (≈ 20.8 µM); in the experiment on P. aeruginosa 378057, no more than 0.031 mg/L; with A. baumannii 1484820 it was 1 mg/L (≈ 1.3 µM).
On to `CC(C)(O/N=C(\C(=O)N[C@@H]1C(=O)N2C(C(=O)O)=C(C[N+]3(CCN4C(=O)c5ccc(O)c(O)c5C4=O)CCCCC3)CS[C@H]12)c1csc(N)n1)C(=O)[O-]` [Compound I-7], for which the MIC in the experiment on E. Coli ATCC BAA-196 is 0.063 mg/L (≈ 0.0831 µM); in the experiment with E. Coli ATCC BAA-200 it was 0.125 mg/L (≈ 0.165 µM); with E. cloacae 1481026, 0.5 mg/L (≈ 0.66 µM); in the experiment with P. aeruginosa 378057 it was no more than 0.031 mg/L; in the experiment with A. baumannii 1484820 it was 0.25 mg/L (≈ 0.33 µM).
As to `CC(C)(O/N=C(\C(=O)N[C@@H]1C(=O)N2C(C(=O)[O-])=C(C[N+]34CCC(CNC(=O)C(=O)c5cc(O)c(O)c(F)c5)(CC3)CC4)CS[C@H]12)c1csc(N)n1)C(=O)[O-].[Na+]` [Compound I-20], the MIC with E. Coli ATCC BAA-196 is 0.063 mg/L; in the experiment on E. Coli ATCC BAA-200 it was 0.25 mg/L; with E. cloacae 1481026, 2 mg/L; with P. aeruginosa 378057 it was no more than 0.031 mg/L; in the experiment on A. baumannii 1484820, 4 mg/L.
On to `CC[N+](CC)(CCN1C(=O)c2ccc(O)c(O)c2C1=O)CC1=C(C(=O)[O-])N2C(=O)[C@@H](NC(=O)/C(=N\OC(C)(C)C(=O)[O-])c3csc(N)n3)[C@H]2SC1.[Na+]` [Compound I-17], for which the MIC with E. Coli ATCC BAA-196 was 0.063 mg/L; in the experiment on E. Coli ATCC BAA-200, 0.063 mg/L; in the experiment on E. cloacae 1481026 it was 0.5 mg/L; in the experiment on P. aeruginosa 378057, no more than 0.031 mg/L; in the experiment with A. baumannii 1484820, 0.5 mg/L.
Take `CC[N+](CC)(CCN1C(=O)c2ccc(O)c(O)c2C1=O)CC1=C(C(=O)[O-])N2C(=O)[C@@H](NC(=O)/C(=N\O[C@@H](CC(=O)[O-])C(=O)[O-])c3csc(N)n3)[C@H]2SC1.[Na+].[Na+]` [Compound I-18]: the MIC was 0.063 mg/L in the experiment on E. Coli ATCC BAA-196; 0.063 mg/L in the experiment with E. Coli ATCC BAA-200; 0.5 mg/L in the experiment with E. cloacae 1481026; no more than 0.031 mg/L in the experiment with P. aeruginosa 378057; 0.25 mg/L in the experiment with A. baumannii 1484820.
`CC(C)(O/N=C(\C(=O)N[C@@H]1C(=O)N2C(C(=O)[O-])=C(C[N+]34CCC(Cn5ncc6cc(O)c(O)cc6c5=O)(CC3)C4)CS[C@H]12)c1csc(N)n1)C(=O)[O-].[Na+]` [Compound I-22]: the MIC was no more than 0.031 mg/L in the experiment on E. Coli ATCC BAA-196; 0.125 mg/L in the experiment on E. Coli ATCC BAA-200; 1 mg/L in the experiment with E. cloacae 1481026; no more than 0.031 mg/L in the experiment on P. aeruginosa 378057; 1 mg/L in the experiment on A. baumannii 1484820.
